From US6603060B1, “Method for regulating cell death” (National Institute of Agrobiological Sciences, priority 1998, dated 2003)
*1 amine or outer side, *2 acyl side, *3 side chain or, on linkers, in order; H or OH if unused. Where a SMILES comes first, the peptide text is derived from it. Bridges are numbered along the chain shown (N, C = ends). Roman numbers before positions name the chains, in order. [ ]: non-standard residue; d: D form. Actinocin(9to1) = Cc1c2oc3c(C)ccc(C(=O)[*:1])c3nc-2c(C(=O)[*:2])c(N)c1=O; NMeV = CN[C@H](C(=O)O)C(C)C; Sar = CNCC(=O)O

Tests used:
TMV-infected NN tobacco [1] = assay: Induction of HR by EDTA and DCMU treatments, nn tobacco; format: in vivo, N. tabacum cv. Samsun nn; details: 30° C., EDTA 5 mM, DCMU 100 mM, necrotic lesion, PR-1 expression, salicylic acid
Method: (§1) To perform an inhibitor treatment with NN tobacco and nn tobacco, EDTA, a metalloprotease inhibitor, and DCMU (3-(3,4-dichlorophenyl)-1,1-dimethylurea) (Sigma Chemical Co., St Louis, Mo., USA), an inhibitor of electron transport in a photochemical system II (PSII), were used as described in Example 8. An EDTA solution was prepared as described in Example 8. The DCMU was dissolved in methanol. The concentration of the inhibitors were 5 mM and 100 mM, respectively.
(§2) After the treatment, leavs were further incubated at 30° C., then examined regarding the followig: formation of a necrotic lesion; expression of PR-1; presence of a marker gene for the HR protein; and accumulation of salicylic acid. For expression of the PR gene, Northern analysis was performed as described in Example 4. Salicylic acid was quantitated as follows.
(§3) Free salicylic acid was extracted and quantitated as described by Malamy et al. (The Plant Cell, 4, 359 (1992)). HPLC analysis was performed on a μBondasphere, 5-μm C-18 (3.9 mm×15 cm) column maintained at 40° C. Isocratic separation was conducted with 23% (v/v) methanol in 20 mM sodium acetate (pH 5.0). Fluorescence detection was performed at using a Model RF-550A (Shimazu, Japan) at […]. All data were corrected for losses.

TMV-infected NN tobacco [2] = assay: Induction of HR by EDTA and DCMU treatments, NN tobacco; format: in vivo, N. tabacum cv. Samsun NN; details: 30° C., EDTA 5 mM, DCMU 100 mM, necrotic lesion, PR-1 expression, salicylic acid
Method: as §1, §2, §3

[3] = test system: TMV-infected NN tobacco leaves; assay: Induction of necrotic lesion formation by protease inhibitors in TMV-inoculated detached leaves, NN tobacco; format: in vivo, N. tabacum cv. Samsun NN; design: key to induction of necrotic lesion formation, Tobacco cv. NN: (−) = Necrotic lesion not induced; (+) = Necrotic lesion induced
Method: (§4) The following reagents were used as inhibitors: APMSF, Aprotinin and 3,4-D as serine protease inhibitors, E-64 as a cysteine protease inhibitor, EDTA as a metalloprotease inhibitor, and leupeptin as a serine/cysteine protease inhibitor. Each inhibitor was prepared as described below.
(§5) For EDTA (Wako Pure Chemicals. Ind. (Osaka, Japan), an aqueous solution adjusted to pH 8.0 by NaOH was used.
(§6) For E-64 (Boehringer Mannheim, Germany), a 50 mM solution in methanol/H2O (1:1, v/v) was used as a stock solution and subsequently diluted in water to the concentrations indicated below.
(§7) For 3,4-D (Boehringer Mannheim, Germany), a 50 mM solution in dimethyl sulfoxide was used as a stock solution and subsequently diluted in water to the concentrations indicated below.
(§8) Leupeptin, Aprotinin, and APMSP were each used as an aqueous solution.
(§9) In this example, EDTA was used at concentrations of 1 mM, […] and 50 mM, and other inhibitors were used at concentrations of 0.01 mM, 0.1 mM and 1 mM.
(§10) Prior to reagent treatment, tobacco leaves were detached, inoculated with TMV (8 μg/ml in a phosphate buffer (pH 7.0)) or mock (buffer alone), and incubated at 30° C. for 40 hr. After the incubation, petioles of the leaves were put into vials containing 0.5 ml of inhibitor solutions. The solution was absorbed through the petioles and sterile water was added to the vials within 1 hr. The treated leaves were then further incubated at 30° C.

[4] = test system: TMV-infected NN tobacco leaves; assay: Induction of necrotic lesion formation by protease inhibitors in TMV-inoculated detached leaves, nn tobacco; format: in vivo, N. tabacum cv. Samsun nn; design: key: (−) = Necrotic lesion not induced; (+) = Necrotic lesion induced
Method: as §4, §5, §6, §7, §8, §9, §10

DS9 = DS9 transcription level and protein amount after AMD treatment (northern and western blotting analysis); format: in vivo, NN tobacco
Method: Prior to the treatments, tobacco leaves were detached, inoculated with TMV (10 μg/ml in a phosphate buffer (pH 7.0)) or mock inoculated (buffer alone), and incubated at 30° C. for 40 hr. For reagent treatment, after the incubation, petioles of the leaves were put into vials containing 0.5 ml of an inhibitor solutions containing AMD (Sigma Chemical Co., St. Louis, Mo., USA) as a 10% (v/v) methanol aqueous solution. The solution was absorbed through the petioles, and sterile water was added to the vials within 1 hr. For heat treatment, a TMV-infected NN tobacco was subjected to heat shock by treating at 50° C. for 2 minutes. Each of the treated leaves was then further incubated at 30° C. Northern analysis and Western blot analysis were performed as described in Examples 4 and 6. In addition, those treated with water were used as controls.

TMV-infected NN tobacco [5] = details: AMD and heat (50° C., 2 minutes), 30° C.; cited from earlier work
TMV-infected NN tobacco [6] = details: AMD and heat (50° C., 2 minutes); cited from earlier work
[7] = TMV-inoculated leaves at 30° C., EDTA 1 mM, 10 mM and 50 mM, other inhibitors 0.01 mM, 0.1 mM and 1 mM

## CN(C)C(=O)Nc1ccc(Cl)c(Cl)c1 [DCMU, 3-(3,4-dichlorophenyl)-1,1-dimethylurea]
TMV-infected NN tobacco [1]
  induction of the HR in nn tobacco: induced the HR
TMV-infected NN tobacco [2]
  induction of the HR in NN tobacco: induced the HR

## O=C(O)CN(CCN(CC(=O)O)CC(=O)O)CC(=O)O [EDTA]
[3]; in vivo
  induction of necrotic lesion formation, Tobacco cv. NN: +
  necrotic lesion in NN tobacco: necrotic lesion was induced
TMV-infected NN tobacco [1]
  induction of the HR in nn tobacco: induced the HR
TMV-infected NN tobacco [2]
  induction of the HR in NN tobacco: induced the HR
[4]; in vivo
  induction of necrotic lesion formation, Tobacco cv. nn: +

## N=C(N)c1ccc(CS(=O)(=O)F)cc1 [APMSF]
[3]; [7]
  induction of necrotic lesion formation, Tobacco cv. NN: −
[4]; [7]
  induction of necrotic lesion formation, Tobacco cv. nn: −

## Aprotinin
[3]; [7]
  induction of necrotic lesion formation, Tobacco cv. NN: −
[4]; [7]
  induction of necrotic lesion formation, Tobacco cv. nn: −

## CC(C)C[C@H](NC(=O)[C@H]1O[C@@H]1C(=O)O)C(=O)NCCCCN=C(N)N [E-64]
[3]; [7]
  induction of necrotic lesion formation, Tobacco cv. NN: −
[4]; [7]
  induction of necrotic lesion formation, Tobacco cv. nn: −

## Cc1c2oc3c(C)ccc(C(=O)N[C@@H]4C(=O)N[C@H](C(C)C)C(=O)N5CCC[C@H]5C(=O)N(C)CC(=O)N(C)[C@@H](C(C)C)C(=O)O[C@@H]4C)c3nc-2c(C(=O)N[C@@H]2C(=O)N[C@H](C(C)C)C(=O)N3CCC[C@H]3C(=O)N(C)CC(=O)N(C)[C@@H](C(C)C)C(=O)O[C@@H]2C)c(N)c1=O [AMD, actinomycin D] (I: T[dV]P[Sar][NMeV] / II: T[dV]P[Sar][NMeV]; ester I:1-I:C, II:1-II:C; linker I:N-II:N via Actinocin(9to1))
DS9; TMV-infected NN tobacco, 30° C., northern analysis
  DS9 transcription level: decrease significantly
DS9; TMV-infected NN tobacco, 30° C., western blot
  DS9 protein amount: decrease significantly
DS9; leaf subjected to mock infection, treated with AMD and heat shock (HS)
  amount of the DS9 protein, mock infected leaf: remarkably decreased
TMV-infected NN tobacco [5]
  HR against TMV infection, NN tobacco: the HR is induced
TMV-infected NN tobacco [6]
  HR against TMV infection, nn tobacco: the HR was also induced

## O=c1oc(Cl)c(Cl)c2ccccc12 [3,4-D]
[3]; [7]
  induction of necrotic lesion formation, Tobacco cv. NN: −
[4]; [7]
  induction of necrotic lesion formation, Tobacco cv. nn: −

## CC(=O)N[C@@H](CC(C)C)C(=O)N[C@@H](CC(C)C)C(=O)N[C@H](C=O)CCCNC(=N)N [leupeptin]
[3]; [7]
  induction of necrotic lesion formation, Tobacco cv. NN: −
[4]; [7]
  induction of necrotic lesion formation, Tobacco cv. nn: −
